Source: patent US11987648B2, “Cyclohexapeptides as selective somatostatin SST5 receptor agonists” (Heptares Therapeutics Limited, priority 2018, dated 2024)
Like-named read-outs stand apart in the source and are kept apart here. *1 amine or outer side, *2 acyl side, *3 side chain or, on linkers, in order; H or OH if unused. Where a SMILES comes first, the peptide text is derived from it. Side-chain parts run from the residue outwards. [ ]: non-standard residue; d: D form. The star is where a group is joined. Ala(piperidin-4-yl) = O=C([C@H](CC1CCN([*:3])CC1)N[*:1])[*:2]; dTrp(5-OMe) = COc1ccc2[nH]cc(C[C@@H](N)C(=O)O)c2c1; dTrp(4-Me) = Cc1cccc2[nH]cc(C[C@@H](N)C(=O)O)c12; dTrp(5-Me) = Cc1ccc2[nH]cc(C[C@@H](N)C(=O)O)c2c1; Ala(piperazin-1-yl) = N[C@@H](CN1CCNCC1)C(=O)O; Phe(3-Br) = N[C@@H](Cc1cccc(Br)c1)C(=O)O; Phe(3-Cl) = N[C@@H](Cc1cccc(Cl)c1)C(=O)O; Phe(3-OMe) = COc1cccc(C[C@H](N)C(=O)O)c1; Phe(4-Cl) = N[C@@H](Cc1ccc(Cl)cc1)C(=O)O; Ethylenediamine = C(CN[*:2])N[*:1]; d(hPhe) = N[C@H](CCc1ccccc1)C(=O)O; Hyp = O=C(O)[C@@H]1C[C@@H](O)CN1; hPhe = N[C@@H](CCc1ccccc1)C(=O)O; 3Pal = N[C@@H](Cc1cccnc1)C(=O)O; Tic = O=C(O)[C@@H]1Cc2ccccc2CN1; Benzyl(4-Cl) = Clc1ccc(C*)cc1; Phg = N[C@H](C(=O)O)c1ccccc1; CO = O=C([*:1])[*:2]; Bn = c1ccc(C*)cc1

Key:
[1] = molecular target: SST5 (Homo sapiens, UniProt P35346); assay: Hit Hunter cAMP XS+ assay, SST5 activation via Gi (reduction of forskolin-stimulated cAMP); assay type: cell-based; settings: for Emax: read-out: SST5 (EMax); for SST5/2 Selectivity: selectivity for SST5 over SST2
Sequence of SST5 (P35346 whole entry): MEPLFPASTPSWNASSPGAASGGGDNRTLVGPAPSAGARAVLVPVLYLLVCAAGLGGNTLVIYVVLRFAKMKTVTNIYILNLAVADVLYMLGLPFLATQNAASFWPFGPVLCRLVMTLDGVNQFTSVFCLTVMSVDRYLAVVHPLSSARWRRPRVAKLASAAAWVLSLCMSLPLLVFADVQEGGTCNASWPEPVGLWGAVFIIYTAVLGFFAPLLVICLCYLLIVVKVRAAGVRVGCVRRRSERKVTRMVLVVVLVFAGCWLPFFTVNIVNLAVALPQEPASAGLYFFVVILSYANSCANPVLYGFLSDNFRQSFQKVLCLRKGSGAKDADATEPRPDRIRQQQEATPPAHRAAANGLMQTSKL
Protocol: (§1) A Hit Hunter® cAMP XS+ assay was used to monitor activation of the SST2 and SST5 via the Gi G protein. Cells were pre-stimulated with forskolin to elicit a cAMP response and the potency and efficacy of somatostatin agonists to reduce cAMP was measured. Briefly cells (10,000 cells/well) were incubated (37° C.; 30 min) with compound ([…]) in media (2:1 HBSS/11 mM Hepes: cAMP XS+Ab reagent) in the presence of EC80 forskolin ([…] and 15 μM SST5). Signal was detected through incubation with 20 μL cAMP XS+ED/CL lysis cocktail ([…]; RT) followed by incubation with […] cAMP XS+EA reagent (180 min; RT). Microplates were read with a PerkinElmer Envision™ instrument for chemiluminescent signal detection.

[2] = molecular target: SST2 (Homo sapiens, UniProt P30874); assay: Hit Hunter cAMP XS+ assay, SST2 activation via Gi (reduction of forskolin-stimulated cAMP); assay type: cell-based; settings: for Emax: read-out: SST2 (EMax)
Sequence of SST2 (P30874 whole entry): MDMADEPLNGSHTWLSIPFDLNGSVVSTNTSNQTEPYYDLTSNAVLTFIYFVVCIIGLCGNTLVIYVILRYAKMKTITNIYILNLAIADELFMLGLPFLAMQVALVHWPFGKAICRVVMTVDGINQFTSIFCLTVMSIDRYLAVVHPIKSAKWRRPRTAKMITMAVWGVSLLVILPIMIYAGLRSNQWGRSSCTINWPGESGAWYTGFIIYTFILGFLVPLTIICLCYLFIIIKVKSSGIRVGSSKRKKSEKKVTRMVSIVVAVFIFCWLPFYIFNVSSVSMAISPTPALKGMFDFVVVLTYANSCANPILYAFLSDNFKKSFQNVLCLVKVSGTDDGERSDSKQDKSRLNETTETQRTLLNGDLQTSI
Protocol: as §1

[3] = reduction of forskolin-stimulated cAMP, 4-parameter logistic fit, read-out: SST5 pEC50 (converted)
[4] = reduction of forskolin-stimulated cAMP, 4-parameter logistic fit, read-out: SST2 pEC50 (converted)

Emax [1]	SST5/2 Selectivity [1]	Emax [2]	EC50 [1, 3]	EC50 [2, 4]	SMILES	EC50 [1]	EC50 [2]
102%	19.3	99.2%	0.501 nM	10 nM	NCCNC(=O)O[C@@H]1C[C@H]2C(=O)N[C@@H](c3ccccc3)C(=O)N[C@H](Cc3c[nH]c4ccccc34)C(=O)N[C@@H](CC3CCNCC3)C(=O)N[C@@H](Cc3ccc(OCc4ccccc4)cc3)C(=O)N[C@@H](Cc3cccc(Cl)c3)C(=O)N2C1 [Example 7] (cyclo([Hyp]([CO-Ethylenediamine])[Phg][dW][Ala(piperidin-4-yl)]Y(Bn)[Phe(3-Cl)]))		
102%	22.7	101%	1.26 nM	31.6 nM	NCCNC(=O)O[C@@H]1C[C@H]2C(=O)N[C@@H](c3ccccc3)C(=O)N[C@H](Cc3c[nH]c4ccccc34)C(=O)N[C@@H](CC3CCNCC3)C(=O)N[C@@H](Cc3ccc(OCc4ccccc4)cc3)C(=O)N[C@@H](Cc3ccc(Cl)cc3)C(=O)N2C1 [Example 8] (cyclo([Hyp]([CO-Ethylenediamine])[Phg][dW][Ala(piperidin-4-yl)]Y(Bn)[Phe(4-Cl)]))		
98%	38.9	101%	0.501 nM	20 nM	NCCNC(=O)O[C@@H]1C[C@H]2C(=O)N[C@@H](c3ccccc3)C(=O)N[C@H](Cc3c[nH]c4ccccc34)C(=O)N[C@@H](CC3CCNCC3)C(=O)N[C@@H](Cc3ccc(OCc4ccccc4)cc3)C(=O)N[C@@H](Cc3cccc(Br)c3)C(=O)N2C1 [Example 10] (cyclo([Hyp]([CO-Ethylenediamine])[Phg][dW][Ala(piperidin-4-yl)]Y(Bn)[Phe(3-Br)]))		
99.4%	48.2	98%	3.98 nM	200 nM	NCCNC(=O)O[C@@H]1C[C@H]2C(=O)N[C@@H](c3ccccc3)C(=O)N[C@H](Cc3c[nH]c4ccccc34)C(=O)N[C@@H](CC3CCNCC3)C(=O)N[C@@H](Cc3ccc(OCc4ccccc4)cc3)C(=O)N[C@@H](Cc3cccnc3)C(=O)N2C1 [Example 11] (cyclo([3Pal][Hyp]([CO-Ethylenediamine])[Phg][dW][Ala(piperidin-4-yl)]Y(Bn)))		
98.1%	26.1	97.6%	0.794 nM	20 nM	COc1cccc(C[C@@H]2NC(=O)[C@H](Cc3ccc(OCc4ccccc4)cc3)NC(=O)[C@H](CC3CCNCC3)NC(=O)[C@@H](Cc3c[nH]c4ccccc34)NC(=O)[C@H](c3ccccc3)NC(=O)[C@@H]3C[C@@H](OC(=O)NCCN)CN3C2=O)c1 [Example 12] (cyclo([Hyp]([CO-Ethylenediamine])[Phg][dW][Ala(piperidin-4-yl)]Y(Bn)[Phe(3-OMe)]))		
98.7%	87.2	97.6%	2.51 nM	200 nM	Cc1ccc2[nH]cc(C[C@H]3NC(=O)[C@H](c4ccccc4)NC(=O)[C@@H]4C[C@@H](OC(=O)NCCN)CN4C(=O)[C@H](Cc4ccccc4)NC(=O)[C@H](Cc4ccc(OCc5ccccc5)cc4)NC(=O)[C@H](CC4CCNCC4)NC3=O)c2c1 [Example 13] (cyclo(F[Hyp]([CO-Ethylenediamine])[Phg][dTrp(5-Me)][Ala(piperidin-4-yl)]Y(Bn)))		

The remaining lines, values behind:

SMILES	Emax [1]	SST5/2 Selectivity [1]	Emax [2]	EC50 [1, 3]	EC50 [2, 4]	EC50 [1]	EC50 [2]
NCCNC(=O)O[C@@H]1C[C@H]2C(=O)N[C@@H](c3ccccc3)C(=O)N[C@H](Cc3c[nH]c4ccccc34)C(=O)N[C@@H](CC3CCNCC3)C(=O)N[C@@H](Cc3ccc(OCc4ccccc4)cc3)C(=O)N[C@@H](Cc3ccccc3)C(=O)N2C1 [Example 1] (cyclo(F[Hyp]([CO-Ethylenediamine])[Phg][dW][Ala(piperidin-4-yl)]Y(Bn)))	98.6%	130.7	62%			25.1 nM	3160 nM
NCCNC(=O)O[C@@H]1C[C@H]2C(=O)N[C@@H](Cc3ccccc3)C(=O)N[C@H](Cc3c[nH]c4ccccc34)C(=O)N[C@@H](CC3CCNCC3)C(=O)N[C@@H](Cc3ccc(OCc4ccccc4)cc3)C(=O)N[C@@H](Cc3ccccc3)C(=O)N2C1 [Example 2] (cyclo(F[Hyp]([CO-Ethylenediamine])F[dW][Ala(piperidin-4-yl)]Y(Bn)))	105%	21.9	96.4%			20 nM	398 nM
NCCNC(=O)O[C@@H]1C[C@H]2C(=O)N[C@@H](CCc3ccccc3)C(=O)N[C@H](Cc3c[nH]c4ccccc34)C(=O)N[C@@H](CC3CCNCC3)C(=O)N[C@@H](Cc3ccc(OCc4ccccc4)cc3)C(=O)N[C@@H](Cc3cccnc3)C(=O)N2C1 [Example 3] (cyclo([3Pal][Hyp]([CO-Ethylenediamine])[hPhe][dW][Ala(piperidin-4-yl)]Y(Bn)))	100%	236.7	98.4%			0.794 nM	200 nM
Cc1cccc2[nH]cc(C[C@H]3NC(=O)[C@H](c4ccccc4)NC(=O)[C@@H]4C[C@@H](OC(=O)NCCN)CN4C(=O)[C@H](Cc4ccccc4)NC(=O)[C@H](Cc4ccc(OCc5ccccc5)cc4)NC(=O)[C@H](CC4CCNCC4)NC3=O)c12 [Example 4] (cyclo(F[Hyp]([CO-Ethylenediamine])[Phg][dTrp(4-Me)][Ala(piperidin-4-yl)]Y(Bn)))	105%	23.6	103%			12.6 nM	251 nM
COc1ccc2[nH]cc(C[C@H]3NC(=O)[C@H](c4ccccc4)NC(=O)[C@@H]4C[C@@H](OC(=O)NCCN)CN4C(=O)[C@H](Cc4ccccc4)NC(=O)[C@H](Cc4ccc(OCc5ccccc5)cc4)NC(=O)[C@H](CC4CCNCC4)NC3=O)c2c1 [Example 5] (cyclo(F[Hyp]([CO-Ethylenediamine])[Phg][dTrp(5-OMe)][Ala(piperidin-4-yl)]Y(Bn)))	98.7%	33.8	97.6%	10 nM	316 nM		
NCCNC(=O)O[C@@H]1C[C@H]2C(=O)N[C@@H](c3ccccc3)C(=O)N[C@H](Cc3c[nH]c4ccccc34)C(=O)N[C@@H](CC3CCNCC3)C(=O)N[C@@H](Cc3ccc(OCc4ccc(Cl)cc4)cc3)C(=O)N[C@@H](Cc3ccccc3)C(=O)N2C1 [Example 6] (cyclo(F[Hyp]([CO-Ethylenediamine])[Phg][dW][Ala(piperidin-4-yl)]Y(Benzyl(4-Cl))))	97.9%	41.9	97.9%	1.26 nM	50.1 nM		
COc1ccc(C[C@@H]2NC(=O)[C@H](Cc3ccc(OCc4ccccc4)cc3)NC(=O)[C@H](CC3CCNCC3)NC(=O)[C@@H](Cc3c[nH]c4ccccc34)NC(=O)[C@H](c3ccccc3)NC(=O)[C@@H]3C[C@@H](OC(=O)NCCN)CN3C2=O)cc1 [Example 9] (cyclo([Hyp]([CO-Ethylenediamine])[Phg][dW][Ala(piperidin-4-yl)]Y(Bn)Y(Me)))	106%	23.3	102%	2.51 nM	50.1 nM		
NCCNC(=O)O[C@@H]1C[C@H]2C(=O)N[C@@H](CCc3ccccc3)C(=O)N[C@H](Cc3c[nH]c4ccccc34)C(=O)N[C@@H](CN3CCNCC3)C(=O)N[C@@H](Cc3ccc(OCc4ccccc4)cc3)C(=O)N[C@@H](Cc3cccnc3)C(=O)N2C1 [Example 14] (cyclo([3Pal][Hyp]([CO-Ethylenediamine])[hPhe][dW][Ala(piperazin-1-yl)]Y(Bn)))	96.7%	1876.8	99.6%	0.0794 nM	158 nM		
NCCNC(=O)O[C@@H]1C[C@H]2C(=O)N[C@H](CCc3ccccc3)C(=O)N[C@H](Cc3c[nH]c4ccccc34)C(=O)N[C@@H](CC3CCNCC3)C(=O)N[C@@H](Cc3ccc(OCc4ccccc4)cc3)C(=O)N[C@@H](Cc3cccnc3)C(=O)N2C1 [Example 15] (cyclo([3Pal][Hyp]([CO-Ethylenediamine])[d(hPhe)][dW][Ala(piperidin-4-yl)]Y(Bn)))	101%	531.3	55.5%	20 nM	> 10000 nM		
NCCNC(=O)O[C@@H]1C[C@H]2C(=O)N[C@H](CCc3ccccc3)C(=O)N[C@H](Cc3c[nH]c4ccccc34)C(=O)N[C@@H](CN3CCNCC3)C(=O)N[C@@H](Cc3ccc(OCc4ccccc4)cc3)C(=O)N[C@@H](Cc3cccnc3)C(=O)N2C1 [Example 16] (cyclo([3Pal][Hyp]([CO-Ethylenediamine])[d(hPhe)][dW][Ala(piperazin-1-yl)]Y(Bn)))	100%	2729.5	79.5%	3.98 nM	> 10000 nM		
NCCNC(=O)O[C@@H]1C[C@H]2C(=O)N[C@@H](CCc3ccccc3)C(=O)N[C@H](Cc3c[nH]c4ccccc34)C(=O)N[C@@H](CC3CCNCC3)C(=O)N[C@@H](Cc3ccc(OCc4ccccc4)cc3)C(=O)N3Cc4ccccc4C[C@H]3C(=O)N2C1 [Example 17] (cyclo([Hyp]([CO-Ethylenediamine])[hPhe][dW][Ala(piperidin-4-yl)]Y(Bn)[Tic]))	104%	789.4	97.3%	0.501 nM	398 nM		
C[C@@H](O)[C@@H]1NC(=O)[C@H](CCCCN)NC(=O)[C@@H](Cc2c[nH]c3ccccc23)NC(=O)[C@H](Cc2ccccc2)NC(=O)[C@@H](NC(=O)[C@H](N)Cc2ccccc2)CSSC[C@@H](C(=O)N[C@H](CO)[C@@H](C)O)NC1=O [Octreotide]			98.5%				
